Assay results taken from patent publication US9512128B2 (BAYER CROPSCIENCE AG, priority 2012, dated 2016).
Like-named read-outs stand apart in the source and are kept apart here.

Experiments:
[1] = system: caterpillars of the armyworm (Spodoptera frugiperda); test: Spodoptera frugiperda spray test (SPODFR); type: in vivo; conditions: application rate 500 g/ha, after 7 days, maize leaf discs
Method: 3. Spodoptera frugiperda Spray Test (SPODFR)
(§1) • Solvents: 78.0 parts by weight of acetone • 1.5 part by weight of dimethylformamide • Emulsifier: 0.5 part by weight of alkylaryl polyglycol ether
(§2) To produce a suitable preparation of active compound, 1 part by weight of active compound is mixed with the stated amounts of solvents and emulsifier, and the concentrate is diluted with emulsifier-containing water to the desired concentration.
Leaf discs of maize (Zea mays) are sprayed with an active compound preparation of the desired concentration and, after drying, populated with caterpillars of the armyworm (Spodoptera frugiperda).
After 7 days, the efficacy in % is determined. 100% means that all of the caterpillars have been killed; 0% means that none of the caterpillars have been killed.

[2] = system: larvae of the mustard beetle (Phaedon cochleariae); test: Phaedon cochleariae spray test (PHAECO); type: in vivo; conditions: application rate 500 g/ha, after 7 days, Chinese cabbage leaf discs
Method: 2. Phaedon cochleariae Spray Test (PHAECO)
as §1, §2
After 7 days, the efficacy in % is determined. 100% means that all of the beetle larvae have been killed; 0% means that none of the beetle larvae have been killed.

[3] = log P by HPLC on reversed-phase columns (C 18), EEC directive 79/831 Annex V.A8; type: physicochemical; conditions: for logP[a]: method [a]; for logP[b]: method [b]; for chromatographic logP: reversed-phase C18 HPLC column
Outline: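 Measured by reversed-phase C18 HPLC (LC-MS) with a linear 10→95% acetonitrile gradient. Acidic: pH 2.7, 0.1% formic acid. Neutral: pH 7.8, 0.001 M ammonium bicarbonate.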

[4] = system: southern root-knot nematode (Meloidogyne incognita); test: Meloidogyne incognita test (MELGIN); type: in vivo; conditions: application rate 20 ppm, after 14 days, lettuce
Method: 5. Meloidogyne incognita Test (MELGIN) • Solvent: 125.0 parts by weight of acetone To prepare a suitable active compound preparation, 1 part by weight of active compound is mixed with the stated amount of solvent and the concentrate is diluted with water to the desired concentration. Vessels are filled with sand, active compound solution, an egg/larvae suspension of the southern root-knot nematode (Meloidogyne incognita) and lettuce seeds. The lettuce seeds germinate and the plants develop. On the roots, galls are formed. After 14 days, the nematicidal effect in % is determined by the formation of galls. 100% means that no galls have been found; 0% means that the number of galls on the treated plants corresponds to the untreated control.

[5] = system: cattle ticks (Boophilus microplus); test: Boophilus microplus injection test (BOOPMI Inj); type: in vivo; conditions: 20 μg/animal, injection into the abdomen, assessed after 7 days
Method: 6. Boophilus microplus Injection Test (BOOPMI Inj)
• Solvent: dimethyl sulphoxide
To produce a suitable preparation of active compound, 10 mg of active compound are mixed with 0.5 ml of solvent, and the concentrate is diluted with solvent to the desired concentration.
1 μl of the active compound solution is injected into the abdomen of 5 fed adult female cattle ticks (Boophilus microplus). The animals are transferred into dishes and kept in a climate-controlled room.
The activity is assessed after 7 days by laying of fertile eggs. Eggs whose fertility is not visible from the outside are stored in a climate-controlled cabinet until the larvae hatch after about 42 days. An efficacy of 100% means that none of the ticks has laid any fertile eggs; 0% means that all eggs are fertile.

[6] = system: greenhouse red spider mite (Tetranychus urticae); test: Tetranychus urticae spray test, OP-resistant (TETRUR); type: in vivo; conditions: after 6 days, bean leaf discs
Outline: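 Bean leaf discs infested with all stages of an OP-resistant strain are sprayed with compound in acetone/DMF with alkylaryl polyglycol ether emulsifier, diluted in water; % mortality after 6 days (100% = all mites killed).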

[7] = pH 2.7, acidic range, pH 2.7, 0.1% aqueous formic acid / acetonitrile, read-out: log P[a]
[8] = pH 2.7, method [a], read-out: logP[a]
[9] = pH 7.8, method [b], read-out: logP[b]
[10] = pH 7.8, neutral range, pH 7.8, 0.001 molar aqueous ammonium bicarbonate / acetonitrile, read-out: log P[b]

Structure (SMILES)	efficacy in % (caterpillars killed) [1] [%]	efficacy in % (beetle larvae killed) [2] [%]	logP[a] [3]	logP[b] [3]	nematicidal effect in % (formation of galls) [4] [%]	efficacy in % (laying of fertile eggs) [5] [%]	efficacy in % (spider mites killed) ([6]; application rate 500 g/ha) [%]	chromatographic logP [3, 7]	chromatographic logP [3, 8]	chromatographic logP [3, 9]	chromatographic logP [3, 10]	efficacy in % (spider mites killed) ([6]; application rate 100 g/ha) [%]
Cc1nn(C)c2ncn(-c3ccc(Cl)c(SCC(F)(F)F)c3)c(=O)c12 [Compound 36]	83	100	2.82	2.79								
Cc1cc(F)c(-n2c(C)nc3c(cnn3C)c2=O)cc1[S+]([O-])CC(F)(F)F (centres unmarked) [Compound 15, 5-{2-Fluoro-4-methyl-5-[(2,2,2-trifluoroethyl)sulphinyl]phenyl}-1,6-dimethyl-1,5-dihydro-4H-pyrazolo[3,4-d]pyrimidin-4-one]					90	100	90	1.85	1.85	1.84	1.84	
Cc1ccc(-n2cnc3c(cnn3C)c2=O)cc1[S+]([O-])CC(F)(F)F (racemic) [Compound 27]			1.57	1.57		100	90					
Cc1cc(F)c(-n2cnc3snc(C(C)(C)C)c3c2=O)cc1[S+]([O-])CC(F)(F)F (centres unmarked) [Compound 208]		83			100		100					
Cc1cc(F)c(-n2cnc3snc(C)c3c2=O)cc1[S+]([O-])CC(F)(F)F (centres unmarked) [Compound 204]		83			100	100	90					
Cc1cc(F)c(-n2cnc3sccc3c2=O)cc1[S+]([O-])CC(F)(F)F (centres unmarked) [Compound 96]		100	2.10	2.09	90		100					
Cc1cc(F)c(-n2cnc3cnn(C(C)C)c3c2=O)cc1SCC(F)(F)F [Compound 161]		83			100		100					
Cc1cc(F)c(-n2nnc3cnn(C)c3c2=O)cc1[S+]([O-])CC(F)(F)F (centres unmarked) [Compound 136]		83			90		100					
Cc1c2c(=O)n(-c3ccc(C(F)(F)F)c([S+]([O-])CC(F)(F)F)c3)cnc2nn1C (centres unmarked) [Compound 46]	100	100	2.11	2.07	90							
Cc1nc2c(=O)n(-c3cc([S+]([O-])CC(F)(F)F)c(C)cc3F)cnc2s1 (centres unmarked) [Compound 73]			1.80	1.77	90	100	100					
COc1ccc(-n2cnc3sccc3c2=O)cc1[S+]([O-])CC(F)(F)F (centres unmarked) [Compound 89]		100	1.91	1.91	90	100						
Cc1cc(F)c(-n2cnc3cnn(C)c3c2=O)cc1[S+]([O-])CC(F)(F)F (centres unmarked) [Compound 40]			1.82	1.81	100	100	90					
Cc1ccc(-n2cnc3c(c(C)nn3C)c2=O)cc1[S+]([O-])CC(F)(F)F (racemic) [Compound 33]	100	100	1.79	1.75			90					
Cc1cc(F)c(-n2cnc3ccsc3c2=O)cc1[S+]([O-])CC(F)(F)F (centres unmarked) [Compound 112]		100	1.96	1.95	90							90
Cc1cc(F)c(-n2cnc3c(cnn3C)c2=O)cc1[S+]([O-])CC(F)(F)F (centres unmarked) [Compound 2, 5-{2-Fluoro-4-methyl-5-[(2,2,2-trifluoroethyl)sulphinyl]phenyl}-1-methyl-1,5-dihydro-4H-pyrazolo[3,4-d]pyrimidin-4-one]		100				100	100	1.73	1.73	1.69	1.69	
Cc1cc(F)c(-n2nnc3snc(C)c3c2=O)cc1SCC(F)(F)F [Compound 205]	100	100					100					
Cc1cc(C)c([S+]([O-])CC(F)(F)F)cc1-n1cnc2cnn(C)c2c1=O (centres unmarked) [Compound 134]					100	100	100					
Cc1cc(F)c(-n2cnc3ncsc3c2=O)cc1[S+]([O-])CC(F)(F)F (centres unmarked) [Compound 79]			1.60	1.57	90	100	100					
Cc1cc(F)c(-n2nnc3snc(C)c3c2=O)cc1[S+]([O-])CC(F)(F)F (centres unmarked) [Compound 206]	100	100			100		100					
Cc1cc(F)c(-n2cnc3cnn(C(C)C)c3c2=O)cc1[S+]([O-])CC(F)(F)F (centres unmarked) [Compound 165]		100			100		100					
Cc1cc(F)c(-n2c(C)nc3cnn(C)c3c2=O)cc1[S+]([O-])CC(F)(F)F (centres unmarked) [Compound 41]			1.90	1.88	90	100	100					
Cc1cc(F)c(-n2nnc3c(cnn3C)c2=O)cc1[S+]([O-])CC(F)(F)F (centres unmarked) [Compound 120, 3-{2-Fluoro-4-methyl-5-[(2,2,2-trifluoroethyl)sulphinyl]phenyl}-7-methyl-3,7-dihydro-4H-pyrazolo[3,4-d][1,2,3]triazin-4-one]		83					90	2.14	2.14	2.1	2.1	
Cc1cc(F)c(-n2cnc3c(cnn3C)c2=O)cc1SCC(F)(F)F [Compound 1, 5-{2-Fluoro-4-methyl-5-[(2,2,2-trifluoroethyl)sulphanyl]phenyl}-1-methyl-1,5-dihydro-4H-pyrazolo[3,4-d]pyrimidin-4-one]		100					90	2.66	2.66	2.65	2.65	
Cc1cc(F)c(-n2cnc3c(C)nn(C)c3c2=O)cc1[S+]([O-])CC(F)(F)F (centres unmarked) [Compound 129]					90	100	90					
Cc1cc(F)c(-n2cnc3nsc(C(C)(C)C)c3c2=O)cc1SCC(F)(F)F [Compound 191]		100					100					
Cc1cc(F)c(-n2cnc3scnc3c2=O)cc1[S+]([O-])CC(F)(F)F (centres unmarked) [Compound 61]		100	1.57	1.56	90	100	90					
